Numbers after ± are expanded uncertainties.
Experiments:
[1] = 298.2 K; 101.33 kPa; Liquid; Vibrating tube method
[2] = refractive index (Na D-line) (dimensionless); settings: 298.2 K; 101.33 kPa; Liquid; Standard Abbe refractometry
[3] = wn = mass fraction of the nth substance listed; settings: 298.2 K; 100 kPa; Liquid; Vibrating tube method; w1 = 0.85
[4] = refractive index (Na D-line) (dimensionless); wn = mass fraction of the nth substance listed; settings: 298.2 K; 100 kPa; Liquid; Standard Abbe refractometry; w1 = 0.85

SMILES	mass density [1]	refractive index [2]	mass density [3]	refractive index [4]
CC(C)CC(C)O (configuration not stated) [4-methyl-2-pentanol]	803.77 ± 2.1 kg/m3	1.4101 ± 0.003		
CCCC(C)O (configuration not stated) [pentan-2-ol]	805.3 ± 2.1 kg/m3	1.4049 ± 0.003		
O=P(O)(O)O [phosphoric acid] + O			1682.7 ± 2.2 kg/m3	1.432 ± 0.003
O [water]		1.3325 ± 0.003		
